Data reported in article PMC10177692, “Novel topoisomerase II/EGFR dual inhibitors: design, synthesis and docking studies of naphtho[2′,3′:4,5]thiazolo[3,2-a]pyrimidine hybrids as potential anticancer agents with apoptosis inducing activity” (Journal of Enzyme Inhibition and Medicinal Chemistry, 2023).

How the values were obtained:
HCT-116 = assay: MTT anti-proliferative assay; format: cell-based, human; conditions: for IC50: Homo sapiens, HCT-116, MTT, 24 h, mean ± SE of three experiments, read-out: IC50 (µM) ± S.E. HCT-116
Procedure: The culture media were supplemented with 10% heat inactivated foetal bovine serum (FBS, HyClone, Thermo Scientific) and antibiotics (100 U/ml penicillin and 100 µg/ml streptomycin, HyClone, Thermo Scientific). The cells were incubated in a humidified atmosphere containing 5% CO2 (Heracell VIOS CO2 incubator, Thermo Scientific) in air at 37 °C.
MTT reagent, at volume equal to 10% of the culture medium volume, was added to the cultured cells and to the blank wells. The culture plates were re-incubated for 2–4 h depending on cell type and density. After the incubation period, culture plates were restored from the incubator and the obtained formazan crystals were dissolved in acidified isopropanol with continuous shaking using plate shaker (MaxQ 2000, Thermo Fisher Scientific Inc., MI, USA) at room temperature. Absorbance was measured spectrophotometrically at wavelength 570 nm using a plate reader (Stat FaxR 4200, Awareness Technology, Inc., FL, USA). […] Three independent experiments were performed for each compound and Mean ± SE were calculated.

topoisomerase IIα = molecular target: T1, topoisomerase IIα (Homo sapiens, UniProt P11388); assay: Topoisomerase IIα inhibitory activity (ELISA kit); format: cell-based; conditions: MCF-7 cell line; for % inhibition of topoisomerase IIα activity: compounds at their IC50, compared to control; for concentration of topoisomerase IIα: compounds at their IC50, control 3.663 ± 0.09 ng/ml
T1 construct: it decreases the concentration of topoisomerase iIα in MCF-7 cell line to 1.043 ± 0.10 ng/ml; endogenous in cells; host or cells: MCF-7
T1 sequence (P11388 whole entry): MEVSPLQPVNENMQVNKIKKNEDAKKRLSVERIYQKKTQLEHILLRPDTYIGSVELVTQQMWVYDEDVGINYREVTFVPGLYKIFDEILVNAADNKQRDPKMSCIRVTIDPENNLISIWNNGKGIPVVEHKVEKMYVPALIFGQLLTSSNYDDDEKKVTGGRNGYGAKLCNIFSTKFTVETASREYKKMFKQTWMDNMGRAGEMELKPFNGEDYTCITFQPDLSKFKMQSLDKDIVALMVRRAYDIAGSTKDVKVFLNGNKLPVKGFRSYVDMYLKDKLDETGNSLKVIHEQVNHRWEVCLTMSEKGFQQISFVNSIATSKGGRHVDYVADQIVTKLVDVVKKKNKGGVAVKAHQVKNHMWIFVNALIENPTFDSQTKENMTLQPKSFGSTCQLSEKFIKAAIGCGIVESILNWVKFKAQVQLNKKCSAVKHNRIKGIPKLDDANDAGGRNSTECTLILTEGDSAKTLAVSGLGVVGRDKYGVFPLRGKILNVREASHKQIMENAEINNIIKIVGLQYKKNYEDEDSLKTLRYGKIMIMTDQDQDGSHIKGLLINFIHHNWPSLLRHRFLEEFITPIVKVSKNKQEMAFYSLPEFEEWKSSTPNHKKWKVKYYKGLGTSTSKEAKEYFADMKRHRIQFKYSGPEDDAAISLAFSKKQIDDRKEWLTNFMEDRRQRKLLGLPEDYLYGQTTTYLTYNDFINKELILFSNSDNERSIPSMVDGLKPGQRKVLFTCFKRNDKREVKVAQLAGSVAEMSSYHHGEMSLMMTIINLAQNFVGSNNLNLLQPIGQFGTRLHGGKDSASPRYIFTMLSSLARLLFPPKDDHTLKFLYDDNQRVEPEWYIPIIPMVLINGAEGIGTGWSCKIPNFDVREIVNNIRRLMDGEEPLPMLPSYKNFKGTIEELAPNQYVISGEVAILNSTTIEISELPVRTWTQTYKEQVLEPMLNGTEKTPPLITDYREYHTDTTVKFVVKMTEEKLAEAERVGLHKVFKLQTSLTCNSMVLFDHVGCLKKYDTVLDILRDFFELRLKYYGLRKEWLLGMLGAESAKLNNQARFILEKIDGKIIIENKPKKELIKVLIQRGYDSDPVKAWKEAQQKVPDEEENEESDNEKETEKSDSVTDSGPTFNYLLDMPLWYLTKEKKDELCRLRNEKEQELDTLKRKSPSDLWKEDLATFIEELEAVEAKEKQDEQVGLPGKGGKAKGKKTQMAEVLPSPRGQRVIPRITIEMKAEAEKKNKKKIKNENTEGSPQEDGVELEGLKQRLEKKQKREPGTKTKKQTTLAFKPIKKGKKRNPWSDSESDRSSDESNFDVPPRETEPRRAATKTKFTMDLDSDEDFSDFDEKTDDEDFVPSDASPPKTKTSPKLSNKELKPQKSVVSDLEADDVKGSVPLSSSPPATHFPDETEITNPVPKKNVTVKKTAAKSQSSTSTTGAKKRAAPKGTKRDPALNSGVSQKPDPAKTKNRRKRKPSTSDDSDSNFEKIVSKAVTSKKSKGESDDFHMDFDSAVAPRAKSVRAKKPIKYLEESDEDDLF
Procedure: Biotin-conjugated antibody was added to each well followed by incubation at 37 °C for 1 h, then the plates were aspirated. Avidin conjugated Horseradish Peroxidase (HRP avidin) solution was added to each well, incubated again at 37 °C for 1 h. TMB substrate was added to the wells and the plate was incubated at 37 °C for 30 min at dark place. The absorbance was read using spectrophotometer at a wavelength of 450 nm.

topoisomerase II = molecular target: T2, topoisomerase II (Homo sapiens, UniProt P11388); assay: DNA topo II inhibition assay (kDNA, agarose gel); format: biochemical; conditions: 10 µM, with topo II
T2 construct: purchased Topogen, USA
T2 sequence (P11388 whole entry): as above
Procedure: Using the procedure outlined in topoisomerase II Drug Screening Kit (Topogen, USA), the effect of 6a, 6c and 6i on topoisomerase II inhibition and the effectiveness of catenated/decatenated kDNA formation were examined. The reaction mixture includes 10 mM MgCl2, 50 mM Tris-HCl, 0.5 mM dithiothreitol, […]/ml bovine serum albumin, 200–300 ng of kDNA and topoisomerase II. […] After the reaction samples were incubated for 30 min at 37 °C, the reaction was stopped by adding […] of a stop buffer containing 10% (w/v) SDS and […] of 0.5 mg/ml proteinase followed by incubating the mixture for 10 min at 37 °C. The reaction mixture was separated by 1% agarose gel and examined after being stained with ethidium bromide.

EGFR = molecular target: T3, EGFR (Homo sapiens, UniProt P00533); assay: EGFR kinase assay kit; format: biochemical; conditions: mean ± SE
T3 construct: purchased BPS Bioscience, San Diego, CA, USA
T3 sequence (P00533 25-1210): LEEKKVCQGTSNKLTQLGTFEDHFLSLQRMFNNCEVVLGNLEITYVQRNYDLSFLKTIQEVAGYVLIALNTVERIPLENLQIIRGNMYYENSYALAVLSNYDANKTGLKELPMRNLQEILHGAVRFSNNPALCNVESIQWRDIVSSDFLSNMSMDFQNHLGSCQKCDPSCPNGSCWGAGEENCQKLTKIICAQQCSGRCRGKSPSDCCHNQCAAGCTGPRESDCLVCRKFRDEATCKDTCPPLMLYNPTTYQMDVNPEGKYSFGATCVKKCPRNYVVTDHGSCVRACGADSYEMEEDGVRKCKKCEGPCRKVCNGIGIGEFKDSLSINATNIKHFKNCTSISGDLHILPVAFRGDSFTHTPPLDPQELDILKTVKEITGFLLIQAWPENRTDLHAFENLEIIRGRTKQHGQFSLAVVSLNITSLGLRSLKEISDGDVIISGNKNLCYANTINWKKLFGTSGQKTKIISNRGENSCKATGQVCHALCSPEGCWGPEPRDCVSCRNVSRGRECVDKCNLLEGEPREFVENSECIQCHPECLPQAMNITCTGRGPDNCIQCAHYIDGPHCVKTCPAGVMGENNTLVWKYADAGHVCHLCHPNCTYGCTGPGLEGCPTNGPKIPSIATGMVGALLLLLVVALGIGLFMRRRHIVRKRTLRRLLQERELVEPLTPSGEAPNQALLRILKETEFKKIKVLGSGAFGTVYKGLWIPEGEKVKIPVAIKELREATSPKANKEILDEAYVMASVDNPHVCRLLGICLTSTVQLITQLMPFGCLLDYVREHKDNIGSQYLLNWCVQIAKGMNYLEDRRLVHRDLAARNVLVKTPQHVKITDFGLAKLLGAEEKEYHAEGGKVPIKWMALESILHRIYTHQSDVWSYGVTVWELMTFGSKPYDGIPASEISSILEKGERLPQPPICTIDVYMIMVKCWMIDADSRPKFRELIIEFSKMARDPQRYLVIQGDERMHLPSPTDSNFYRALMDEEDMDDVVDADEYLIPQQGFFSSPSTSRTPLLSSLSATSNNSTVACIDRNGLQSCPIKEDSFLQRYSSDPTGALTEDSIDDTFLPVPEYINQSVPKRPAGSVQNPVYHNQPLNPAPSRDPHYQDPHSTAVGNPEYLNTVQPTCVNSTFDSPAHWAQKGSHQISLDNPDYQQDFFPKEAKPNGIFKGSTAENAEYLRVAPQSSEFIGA
Procedure: The kinase activity of EGFR was assessed for 6a, 6c and 6i hybrids using EGFR kinase assay kit (BPS Bioscience, San Diego, CA, USA) based on the manufacturer’s instructions. Three independent experiments were performed for each compound and Mean ± SE were calculated.

Bax = Bax level ELISA in MCF-7 cells; format: cell-based, human; conditions: for Bax Conc.(pg/ml): MCF-7, at IC50, 24 h, control 83.16 ± 6.2; for Bax FLD: MCF-7, at IC50, fold of control cells
Procedure: (§1) MCF-7 cells were cultured in DMEM supplied with 10% FBS and incubated in 5% CO2 in air at 37 °C. […] Cell lysate was diluted using standard diluent buffer over the range of assay. Bax and Bcl-2 content in the lysate was assessed using human Bax ELISA kit (DRG, USA) and Bcl-2 ELISA Kit (Zymed Laboratories, Invitrogen Immuno-detection, Canada), respectively, according to the manufacturer’s instructions for each kit. The results were expressed as Mean ± SE of three independent experiments.

Bcl-2 = Bcl-2 level ELISA in MCF-7 cells; format: cell-based, human; conditions: for Bcl-2 Conc.(ng/ml): MCF-7, at IC50, 24 h, control 6.56 ± 0.22; for Bcl-2 FLD: MCF-7, at IC50, fold of control cells
Procedure: as §1

caspase-7 = assay: Caspase-7 ELISA in MCF-7 cells; format: cell-based, human; conditions: for Caspase 7 FLD: MCF-7, at IC50, fold of control; for Caspase 7 Conc.(ng/ml): MCF-7, at IC50, control 0.45 ± 0.03
Procedure: (§2) The effect of 6a, 6c and 6i hybrids on caspase-7 and −9 levels in MCF-7 cell line was measured using Human Caspase-7 ELISA Kit (BioVision Inc., Milpitas, CA 95035 USA) and Human Caspase-9 ELISA Kit (EIA-4860, DRG, USA), respectively, and according to the manufacturer’s instructions. The results were expressed as Mean ± SE of three independent experiments.

caspase-9 = assay: Caspase-9 ELISA in MCF-7 cells; format: cell-based, human; conditions: for Caspase 9 Conc.(pg/ml): MCF-7, at IC50, control 4.51 ± 0.29
Procedure: as §2

MCF-7 cells [1] = assay: In vitro DNA flow cytometry (cell cycle analysis); format: cell-based, human; conditions: MCF-7, at IC50, 24 h; for DNA content %Pre-G1: control 1.89; for DNA content %G2/M: control 7.68; for DNA content %S: control 35.09; for DNA content %G0-G1: control 57.23
Procedure: MCF-7 cells were seeded at density of 2 × 10^5 into each well of a 6-well plate. The cells were maintained in Dulbecco’s Modified Eagle’s Medium (DMEM), supplied with 10% foetal bovine serum, and incubated in a humidified atmosphere containing 5% CO2 in air for 24 h at 37 °C. The incubation medium was replaced with a fresh one containing the synthesised hybrids 6a and 6i at their IC50 in DMSO (1% v/v). The cell plates were incubated for 24 h. The cells were washed twice with cold phosphate buffered saline (PBS) then fixed with 70% ice-cold ethanol. Cells washed with PBS at 37 °C for 30 min and recovered by centrifugation at 2000 rpm for 5 min. Cells were stained using DNA fluorochrome propidium iodide (PI). The plates were incubated at room temperature for 20 min in a dark place. Then the cells were investigated with a FACS Calibre flow cytometer (Becton Dickinson, Heidelberg, Germany)[48].

MCF-7 cells [2] = assay: Annexin V-FITC/PI staining assay; format: cell-based, human; parameters: Apoptosis Total / Apoptosis Early / Apoptosis Late / Necrosis: unit not given here; conditions: for increase in cell necrosis compared to control / increase of cell population in early apoptotic stage compared to control / increase of late apoptotic cell population compared to control: MCF-7, at IC50; for Apoptosis Late / Apoptosis Early / Necrosis / Apoptosis Total: MCF-7, at IC50, 24 h; for Apoptosis Late: control 0.15; for Apoptosis Early: control 0.38; for Necrosis: control 1.36; for Apoptosis Total: control 1.89
Procedure: Cells underwent three washing cycles using ice cold PBS, then suspended in PBS. Cell apoptosis was detected by Annexin V-FITC Apoptosis Detection Kit (BioVisionResearch Products, USA). The cells were stained using PI staining solution, Annexin V-FITC and incubated for 15 min at room temperature in a dark place. Cells were investigated by flow cytometry (Ex = 488 nm; Em = 530 nm) using FACS calibre (Becton Dickinson, Heidelberg, Germany)[48].

Compound: COc1ccc(-c2nc3sc4c(n3c(=O)c2C#N)C(=O)c2ccccc2C4=O)cc1 [Compound 6a, 2–(4-Methoxyphenyl)-4,6,11-trioxo-6,11-dihydro-4H-naphtho[2′,3′:4,5]-thiazolo[3,2-a]pyrimidine-3-carbonitrile]
- IC50 (HCT-116): 3.58 ± 0.24 µM
- % inhibition of topoisomerase IIα activity (topoisomerase IIα): 35.81%
- concentration of topoisomerase IIα (topoisomerase IIα): 2.351 ± 0.21 ng/mL
- linear DNA formation from catenated kDNA (topoisomerase II): the production of linear DNA was not noticed
- IC50 (EGFR; read-out: EGFR inhibitory activity IC50): 0.016 ± 0.00047 µM
- Bax Conc.(pg/ml) (Bax): 436.1 ± 5.1 pg/mL
- Bax FLD (Bax): 5.24 fold
- Bcl-2 Conc.(ng/ml) (Bcl-2): 3.99 ± 0.24 ng/mL
- Bcl-2 FLD (Bcl-2): 0.61 fold
- Caspase 7 FLD (caspase-7): 14.93 fold
- Caspase 7 Conc.(ng/ml) (caspase-7): 6.72 ± 0.23 ng/mL
- Caspase 9 FLD (caspase-9; MCF-7, at IC50, fold of control): 4.69 fold
- Caspase 9 Conc.(pg/ml) (caspase-9): 21.17 ± 0.38 pg/mL
- DNA content %Pre-G1 (MCF-7 cells [1]): 33.41%
- DNA content %G2/M (MCF-7 cells [1]): 34.78%
- DNA content %S (MCF-7 cells [1]): 28.94%
- DNA content %G0-G1 (MCF-7 cells [1]): 36.28%
- increase in cell necrosis compared to control (MCF-7 cells [2]): 6.78 folds
- increase of cell population in early apoptotic stage compared to control (MCF-7 cells [2]): 13.84 folds
- increase of late apoptotic cell population compared to control (MCF-7 cells [2]): 126.13 folds
- Apoptosis Late (MCF-7 cells [2]): 18.92
- Apoptosis Early (MCF-7 cells [2]): 5.26
- Necrosis (MCF-7 cells [2]): 9.23
- Apoptosis Total (MCF-7 cells [2]): 33.41

Compound: N#Cc1c(-c2ccc([N+](=O)[O-])cc2)nc2sc3c(n2c1=O)C(=O)c1ccccc1C3=O [Compound 6i, 2–(4-Nitrophenyl)-4,6,11-trioxo-6,11-dihydro-4H-naphtho[’',’':4,5]thiazolo-[3,2-a]pyrimidine-3-carbonitrile]
- fold superior activity than Dox (HCT-116; HCT-116, ratio of IC50 values): 2.96 fold
- fold the activity of erlotinib (HCT-116; HCT-116, ratio of IC50 values): 3.77 fold
- IC50 (HCT-116): 2.29 ± 0.18 µM
- % inhibition of topoisomerase IIα activity (topoisomerase IIα): 71.50%
- concentration of topoisomerase IIα (topoisomerase IIα): 1.043 ± 0.10 ng/mL
- linear DNA formation from catenated kDNA (topoisomerase II): the production of linear DNA was not noticed
- EGFR inhibitory activity IC50 (EGFR): nearly equipotent to that of erlotinib
- Bax Conc.(pg/ml) (Bax): 581.5 ± 8.7 pg/mL
- Bax FLD (Bax): 6.99 fold
- Bcl-2 Conc.(ng/ml) (Bcl-2): 3.64 ± 0.08 ng/mL
- Bcl-2 FLD (Bcl-2): 0.55 fold
- Caspase 7 FLD (caspase-7): 20.41 fold
- Caspase 7 Conc.(ng/ml) (caspase-7): 9.20 ± 0.87 ng/mL
- Caspase 9 Conc.(pg/ml) (caspase-9): 32.29 ± 0.33 pg/mL
- DNA content %Pre-G1 (MCF-7 cells [1]): 45.26%
- DNA content %G2/M (MCF-7 cells [1]): 2.89%
- DNA content %S (MCF-7 cells [1]): 51.17%
- DNA content %G0-G1 (MCF-7 cells [1]): 45.94%
- increase in cell necrosis compared to control (MCF-7 cells [2]): 10.52 folds
- increase of cell population in early apoptotic stage compared to control (MCF-7 cells [2]): 9.57 folds
- increase of late apoptotic cell population compared to control (MCF-7 cells [2]): 182.06 folds
- Apoptosis Late (MCF-7 cells [2]): 27.31
- Apoptosis Early (MCF-7 cells [2]): 3.64
- Necrosis (MCF-7 cells [2]): 14.31
- Apoptosis Total (MCF-7 cells [2]): 45.26
